US20210346259A1, “Oral Care Compositions Comprising Dicarboxylic Acid” (The Procter & Gamble Company, priority 2020, published 2021)

Columns and labels:
[1] = Powder Stain Removal Model (PSRM), tea stain; conditions: pH 7
Experimental: A tea solution was prepared using 8 regular teabags (Lipton Black Tea) in 400 mL boiling water and steeping for 5 min. After letting the tea cool to 50° C. it was filtered through a Nalgene sterile filter (Thermo Scientific Nalgene Rapid flow 75 mm Filter Unit, 0.2SCFA). 10 g Hydroxyapatite Powder (HAP, Bio-Gel HTP-Gel Catalog #130-0421, Bio-Rad Laboratories Hercules, Calif.) was added and the mixture was stirred for 5 min, distributed into 12 50-mL centrifuge tubes and centrifuged for 15 min at 14,000 rpm (Lynx 6000, Thermo Fischer with Lynx F14-14X50CY rotor). Supernatant was decanted, the remaining stained HAP-powder was washed twice with water by adding 25 ml of water, vortexing, centrifuging at 14,000 rpm for 15 mins, and decanting liquid. Centrifuge tubes were placed in a convection oven overnight at 60° C. to dry stained HAP. Once dried, stained HAP was pooled and ground to a fine powder with pestle and mortar and stored in a dry dark place at room temperature.
HAP powders were treated with the treatment solutions to investigate their stain removal potential. Treatment (20 mL of a 1:4 dilution of treatment solutions above) was added to stained HAP powder (200 mg) in a 50 mL centrifuge, vortexed for 1 min, then centrifuged at 14,000 rpm for 15 min. Supernatant was decanted and the pellet was washed twice by adding 25 mL of water, vortexing, centrifuging at 14,000 rpm for 15 mins, and decanting. […]

[2] = Powder Stain Removal Model (PSRM), tea stain + FeCl3; conditions: pH 7
From the text: The PSRM is a screening technique where hydroxyapatite powder (HAP) is used as a substrate for stain accumulation (see Baig A A; Kozak K M; Cox E R et al; J Clin Dent 2002, 13:19 24). The purpose of this technique was to illustrate and quantify the stain removal properties of chemical agents used in the oral care compositions disclosed herein with respect to pH. Hydroxyapatite powder provides a large surface area to which tea chromogens adsorbed. In addition to the published PSRM a modification of the model was used where tea stain was used in conjunction with Iron Trichloride (FeCl3) to simulate stains that are more resistant to removal. Stains found in the oral cavity commonly contain Fe(III) (Tantbirojn D, Douglas W H et al Eur J Oral Sci 1998; 106,971-976). […] The magnitude of stain removal was quantified by image analysis. […] VWR BDH9234) was added under stirring. Then HAP-powder was added, powder was centrifuged, washed and dried to yield a deeply colored powder. Treatment solutions were prepared for oxalate and pyrophosphate anions. Oxalate solutions (0.34M, 3%) of different pH (4.5, 5.0, 5.5, 7) were obtained by mixing appropriate ratios of potassium oxalate (62.79 g/L Potassium Oxalate Monohydrate in water, pH-7.0) and oxalic acid solution (30.69 g Oxalic Acid/L in water, pH-1.3). Lower concentrations were obtained by further dilution with water. A pyrophosphate solution, equimolar to a 3% Oxalate solution (75.65 g/L Sodium acid pyrophosphate, pH-adjusted with IN NaOH to pH7) was used as comparison. HAP powders were treated with the treatment solutions to investigate their stain removal potential. […] Supernatant was decanted and the pellet was washed twice by adding 25 mL of water, vortexing, centrifuging at 14,000 rpm for 15 mins, and decanting. The twice washed pellet was resuspended in 30 mL water by vortexing for 1 min, then vacuum-filtered (Millipore MF Membrane Filters 8.0 um, 47 mm) to collect the powder. […] Treatments were done in triplicate. A control disk using tea-stained HAP from the same batch treated with water was prepared as well. The color of the laminated samples was measured using a color-calibrated, white-balanced digital camera and RGB values were acquired. […] The light system was equipped with Dedo lights (model number DLH2) equipped with 150 watt, 24V bulbs model number (Xenophot model number HL X64640), positioned about 30 cm apart (measured from the center of the external circular surface of one of the glass lens through which the light exits to the other) and aimed at a 45 degree angle such that the light paths. […] Stain removal was determined as change in L (brightness) vs. untreated stained HAP, calculated as ΔL=(L for treated HAP-L for the untreated stained HAP). […]

[3] = Slurry pH of enamel softening treatments; format: physicochemical; conditions: treatment as used in enamel softening, Study 1
From the text: The pH of the oral care compositions as described herein can be from about 4 to about 7, from about 4 to about 6, from about 4.5 to about 6.5, or from about 4.5 to about 5.5. The pH of a mouthrinse solution can be determined as the pH of the neat solution. The pH of a dentifrice composition can be determined as a slurry pH, which is the pH of a mixture of the dentifrice composition and water, such as a 1:4, 1:3, or 1:2 mixture of the dentifrice composition and water.

[4] = human, 1 %, pH 2.19
Experimental: The enamel softening method is used to determine the potential of oral care compositions to damage (or not to damage) dental enamel with repeated exposure.
A core of sound human enamel with a diameter of 3-4 mm was extracted from whole human teeth. The cores were mounted in dental acrylic and the surfaces were ground using 600 grit paper. Increasingly fine lapping papers were then used to polish the surface to a 1μ polish. Samples were sonicated in deionized water for 30 min. Enamel specimens were then rinsed with deionized water and wiped to remove any residual polish. Each enamel specimen was inspected and samples with large cracks or uneven calcification were discarded. […]
The artificial saliva solution of TABLE 6 was prepared on the day before the experiment. Also on the day before the experiment, the Vickers hardness of each enamel specimen was measured using a hardness indenter at three separate locations spread across the enamel surface. A 50 g load was applied for 10 seconds, and the diagonal lengths of the resulting indents were measured using a 20× magnification objective. […]
On the day following the cycling experiment, the post-cycling hardness was obtained for each specimen using a similar procedure to that described for the pre-cycling hardness measurements. […] The average change in specimen hardness with respect to treatment and its standard deviation were then determined. […]

[5] = 0.250 % Active (equimolar to Oxalate Solution)
[6] = 1.250 % Active (equimolar to Oxalate Solution)
[7] = 2.5200 % Active (equimolar to Oxalate Solution)
[8] = 7.56.00 % Active (equimolar to Oxalate Solution)

Structure (SMILES)	Tea Stain (ΔL) [1, 5]	Tea Stain (ΔL) [1, 6]	Tea Stain (ΔL) [1, 7]	Tea Stain (ΔL) [1, 8]	Tea Stain + FeCl3 (ΔL) [2, 5]	Tea Stain + FeCl3 (ΔL) [2, 6]	Tea Stain + FeCl3 (ΔL) [2, 7]	Tea Stain + FeCl3 (ΔL) [2, 8]	Slurry pH [3]	Δ SMH (change in surface microhardness) [4]
O=P([O-])(O)OP(=O)([O-])O.[Na+].[Na+] [Pyrophosphate Solution, Sodium acid pyrophosphate]	5.16	5.97	7.88	9.85	−0.97	0.02	0.77	2.88	–	–
O=C(O)CC(O)(CC(=O)O)C(=O)O [1% Citric Acid, citric acid]	–	–	–	–	–	–	–	–	2.19	−175.68
